What was measured:
[1] = tested on: adjuvant induced arthritis; test: Rat adjuvant-induced arthritis (AIA) model; type: in vivo
reticulocyte deployment = test: Epo induced reticulocyte deployment assay; type: in vivo; conditions: rat, Epo challenge, highest concentration tested
Procedure: Naïve male Lewis rats were injected intravenously with either PBS or 1000 IU of epoetin α (Procrit®, Janssen Products, LP, Horsham, PA) for two consecutive days. Reticulocytes were measured on day 4 by flow cytometry using thiozole orange as a dye as previously described.

[2] = tested on: CD3-/CD16+/CD56+ NK cells; test: Circulating NK cell analysis after 14 days dosing; type: in vivo, rat
Procedure: Blood was collected and stained using BD MultiTest IMK kit (BD Biosciences, San Jose, CA) per manufacturer’s instructions. NK cell numbers were determined by using FlowJo analysis software (FlowJo, LLC, Ashland, OR) and by examining the CD3^−/CD16^+/CD56^+ population. The number of cells/μL was calculated by using the following equation: (# events in cell population/# of events in absolute bead count region) × (# beads per test/test volume), with the value beads per test indicated on the BD Trucount tube label.

IL-6 induced pSTAT3 = test: Clinical ex vivo IL-6 stimulation of whole blood, pSTAT3; type: in vivo, healthy volunteers; conditions: healthy volunteers, 5 mg of tofacitinib, 1 h post dose
Procedure: (§1) Recombinant human IL-6 (400 ng/ml), or IL-7 (400 ng/ml), (R&D Systems, Minneapolis, MN) was added to blood and incubated for 10 min at 37°C. Surface antibodies were added (CD14-APC, CD3-fluorescein isothiocyanate [FITC]; BD Biosciences, San Jose, CA) and incubated on ice for an additional 20 min. Samples were lysed (Lyse/Fix, BD Biosciences, San Jose, CA) and incubated for 10 min at 37°C. Samples were washed and stored at − 70°C. For intracellular staining, samples were thawed, washed, and resuspended in BD Perm buffer III (BD Biosciences, San Jose, CA) on ice for 30 min. Samples were washed and stained with pSTAT5-PE or pSTAT3-PE (BD Biosciences, San Jose, CA) for 60 min at room temperature and then analyzed immediately on a FACSCalibur. Geometric means were determined using FlowJo analysis software.

IL-7 driven pSTAT5 = test: Clinical ex vivo IL-7 stimulation of whole blood, pSTAT5; type: in vivo; conditions: healthy volunteers, 5 mg tofacitinib, 1 h post dose
Procedure: as §1

C[C@@H]1CCN(C(=O)CC#N)C[C@@H]1N(C)c1ncnc2[nH]ccc12 [tofacitinib, reference compound]
Reduction in paw swelling at clinical AUC exposures ([1]; exposure associated with 10 mg BID of tofacitinib): ~ 60% | AUC60, AUC0-12 drug concentration necessary to achieve 60% inhibition of paw swelling ([1]; oral BID): 1205 ng·h/mL | Effect on paw swelling ([1]; oral, dosed from day 7): dose-responsive efficacy | Maximal inhibition of reticulocyte deployment (reticulocyte deployment): > 40% | AUC60 for decrease of circulating NK cell numbers ([2]; naive rats dosed orally for 14 days): 1230 ng·h/mL | Decrease in circulating NK cells at AUC60 ([2]; rat, at AUC60 of paw swelling): 70% | Inhibition of IL-6 induced pSTAT3 (IL-6 induced pSTAT3): ~ 50% | Inhibition of IL-7 driven pSTAT5 (IL-7 driven pSTAT5): ~ 70%

— paper PMC6390583 (BMC rheumatology, 2018)
